Earlier results on 1 compound are cited in PMC12260505, “First-in-Human Phase I/IIa Study of the First-in-Class CDK2/4/6 Inhibitor PF-06873600 Alone or with Endocrine Therapy in Patients with Breast Cancer” (Clinical Cancer Research, 2025).

The structures appear in SMILES notation.

The subject of this data set is HR+/HER2− mBC, post-ET patient population. Particulars: palbociclib and fulvestrant, PALOMA3; cited from earlier work.

Take `CC(=O)c1c(C)c2cnc(Nc3ccc(N4CCNCC4)cn3)nc2n(C2CCCC2)c1=O` [palbociclib]: the “Median PFS” value was 9.5 months and the ORR was 24.6%.
